Data from patent publication US8765755B2, “N-containing heterocyclic compounds” (YM Biosciences Australia Pty Ltd, priority 2007, dated 2014).

Legend:
[1] = target: T1, human JAK2 (Homo sapiens, UniProt O60674); assay: JAK2 kinase enzyme assay (Alphascreen); type: biochemical; conditions: 80 or 625 um ATP
T1 construct: The kinase domain of human JAK2 was amplified; GST (N); made in house; host or cells: Sf9 (Spodoptera frugiperda) insect cells, baculovirus
Description: (§1) For screening purposes, compounds (in 100% DMSO) were warmed at 37 degrees for at least 20 minutes before use. A […] stock was initially made in assay buffer, where the final concentration of DMSO was 0.3%. The stocks were then diluted in 384 well Optiplates (Packard) where the final concentration of the compound was 5 μM.
The kinase domain of human JAK2 was amplified from U937mRNA using the polymerase chain reaction with the following primers: […]
The JAK2 PCR products were cloned into the pDest20 destination vector (Gibco). The JAK2 plasmid was then transformed into competent DH10Bac cells (Gibco), and the recombinant baculovirus was prepared via Sf9 insect cell transfection.
(§2) Baculovirus preparations from each of the JAK family members were infected into one litre of Sf9 (Spodoptera frugiperda) cells (Invitrogen) grown in SF900II serum free medium (Invitrogen) to a cell density of approximately 2×10^6 cells/ml. Cells were infected with virus at a cell culture to virus stock ratio of 20:1. Cells were harvested and lysed 48 hours post infection. The GST-tagged JAK kinase domains were purified by affinity chromatography on a GSH agarose column (Scientifix).
(§3) Kinase assays were performed in 384 well Optiplates (Packard) using an Alphascreen Protein Tyrosine KinaseP100 detection kit The compounds were pre-incubated with affinity purified PTK domain in the presence of phosphotyrosine assay buffer (10 mM HEPES, pH 7.5, 100 mM MgCl2, 25 mM NaCl, 200 mM sodium vanadate and 0.1% Tween 20) for 20 minutes. The compounds were then incubated with substrate in the presence of either 80 or 625 um ATP for 60 or 90 minutes. The substrate used was either susbtrate-1 with the sequence biotin-EGPWLEEEEEAYGWMDF-NH2 [SEQ. ID. NO. 13] (final concentration 111 μM) or susbtrate-2 substrate with the sequence biotin-EQEDEPEGDYFEWLEPE (final concentration 133 μM). Alphascreen phosphotyrosine acceptor beads followed by streptavidin donor beads at a concentration of 1/100 in stop buffer were added to each well under subdued light and incubated for 2-3 hours. The Alphascreen plates were read on a Packard Fusion Alpha instrument.

[2] = target: T2, human JAK3 (Homo sapiens, UniProt P52333); assay: JAK3 kinase enzyme assay (Alphascreen); type: biochemical; conditions: 80 or 625 um ATP
T2 construct: The kinase domain of human JAK3 was amplified; GST (N); made in house; host or cells: Sf9 (Spodoptera frugiperda) insect cells, baculovirus
Description: as §1
The kinase domain of human JAK3 was amplified from U937mRNA using the polymerase chain reaction with the following primers: […]
The JAK3 PCR products were cloned into the pDest20 destination expression vector (Gibco). The JAK3 plasmid was then transformed into competent DH10Bac cells (Gibco), and the recombinant baculovirus was prepared via Sf9 insect cell transfection.
as §2, §3

[3] = test system: BafT_J2; assay: Cellular screening, BaF3 TEL:JAK2 cells (Alamar Blue); type: cell-based; conditions: Mus musculus, 40 hr incubation
Description: (§4) For screening purposes, compounds were diluted in 96 well plates at a concentration of 20 μM. Plates were warmed at 37° C. for 30 minutes before the assay was performed.
(§5) The coding region encompassing nucleotides 1-487 of TEL was amplified by PCR using the oligonucleotides 5TEL (5′-GGAGGATCCTGATCTCTCTCGCTGTGAGAC-3′) [SEQ ID NO 14] and 3TEL (5′-AGGC GTCGACTTCTTCTTCATGGTTCTG-3′) [SEQ ID NO 15] and U937 mRNA as a template. A BamHI restriction site was incorporated into the 5TEL primer, and a Sal I restriction site was incorporated into the 3TEL primer. The regions encompassing the kinase domain of JAK2 (nucleotides 2994-3914; JAK2F 5′-ACGC GTCGACGGTGCCTTTGAAGACCGGGAT-3′ [SEQ ID NO 16]; JAK2R 5′-ATAGTTTAGCGGCCGCTCAGAATGAAGGTCATTT-3′) [SEQ ID NO 17] and JAK3 (nucleotides 2520-3469; JAK3F 5′-GAAGTCGACTATGCCTGCCAAGACCCCACGATCTT-3′) [SEQ ID NO 18] were generated by PCR using Taq DNA polymerase (Gibco/BRL) and U937 mRNA as a template. A Sal I restriction site was incorporated into the forward primer of JAK2 and JAK3, a Not I site was incorporated into the JAK2 reverse primer and a Xba I site was added to the reverse primer of JAK3.
A TEL/Jak2 fusion was generated by digestion of the TELPCR product with BamH I/Sal I restriction enzymes, digestion of the JAK2 PCR product with Sal I/Not I restriction enzymes, followed by ligation and subcloning of the ligation product into the mammalian expression Vector pTRE 2 (Clontech), which was prepared by digestion with BamH I-Not I restriction enzymes, to give the TEL/Jak2 fusion plasmid pTELJAK2.
(§6) The growth factor dependant myelomonocytic cell line BaF3 bearing the pTET-off plasmid (Clontech) was transfected with either pTELJAK2 or pTELJAK3, and the transfected cells were selected for growth-factor independent cell growth. The BaF3 wild-type cells were cultured in DMEM containing 10% FCS, 10% WEHI 3B conditioned medium. The BaF3 TELJAK cells ([…]) were cultured in DMEM 10% Tet-System Approved FBS (without WEHI 3B conditioned medium).
(§7) Cell suspensions were prepared by harvesting cells from culture. (the cells used in this test were in late log phase growth with high viability.) Cells were diluted in the appropriate growth medium, as described above, to 1.1× final concentration (from 50,000 cell/mL to 200,000 cell/mL, depending on cell line).
(§8) Compounds to be tested were added (10 μL, 10× final concentration) to a flat bottomed 96-well plate. The cellular suspension (90 μL per well) was then added, and the plate incubated for 40 hr at 37° C., 5% CO2. Alamar Blue 10 μL per well was added and the plates returned to the incubator for a further 4-6 hours. The plates were then read at 544 nm.

[4] = test system: BAF3wt; assay: Cellular screening, BaF3 wild-type cells (Alamar Blue); type: cell-based; conditions: Mus musculus, 40 hr incubation
Description: as §4, §6, §7, §8

[5] = test system: BafT_J3; assay: Cellular screening, BaF3 TEL:JAK3 cells (Alamar Blue); type: cell-based; conditions: Mus musculus, 40 hr incubation
Description: as §4, §5
The TEL/Jak3 fusion was prepared by ligation of the JAK3 Sal I/Not I cleaved kinase domain PCR product with the BamH I/Sal I restriction digested TEL product, followed by ligation of the ligation product into the BamH I/Not I digested pTRE2, to give the TEL/Jak3 fusion plasmid pTELJAK3.
as §6, §7, §8

[6] = test system: CTLL2; assay: Cellular screening, CTLL2 cells (Alamar Blue); type: cell-based; conditions: Mus musculus, CTLL-2, 40 hr incubation
Description: as §4, §7, §8

T2 sequence (P52333 822-1111 limits assumed): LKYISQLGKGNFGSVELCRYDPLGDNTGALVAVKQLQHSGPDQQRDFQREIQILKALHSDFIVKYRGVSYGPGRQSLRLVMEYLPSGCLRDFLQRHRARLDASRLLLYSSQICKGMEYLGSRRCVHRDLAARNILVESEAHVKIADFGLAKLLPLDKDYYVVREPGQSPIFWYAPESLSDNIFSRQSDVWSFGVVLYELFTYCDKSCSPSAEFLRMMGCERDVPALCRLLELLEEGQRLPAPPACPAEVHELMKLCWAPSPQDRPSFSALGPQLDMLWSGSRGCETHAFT
T1 sequence (O60674 849-1124 limits assumed): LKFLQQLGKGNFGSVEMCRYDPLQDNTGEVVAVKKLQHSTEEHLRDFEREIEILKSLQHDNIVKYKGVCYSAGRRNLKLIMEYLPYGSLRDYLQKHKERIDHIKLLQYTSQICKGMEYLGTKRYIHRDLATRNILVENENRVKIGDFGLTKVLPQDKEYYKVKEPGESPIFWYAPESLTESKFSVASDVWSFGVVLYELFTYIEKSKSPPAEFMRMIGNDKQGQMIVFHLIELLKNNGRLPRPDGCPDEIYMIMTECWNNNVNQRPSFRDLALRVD

| Compound | IC50 [1] [nM] | IC50 [2] [nM] | IC50 [3] [nM] | IC50 [4] [nM] | IC50 [5] [nM] | IC50 [6] [nM] |
| --- | --- | --- | --- | --- | --- | --- |
| Nc1cccc(-c2csc3cnc(Nc4ccc(N5CCOCC5)cc4)nc23)c1 [Compound 4, 7-(3-aminophenyl)-N-(4-morpholinophenyl)thieno[3,2-d]pyrimidin-2-amine] | < 100 | < 100 | < 1000 | < 1000 | < 1000 | < 1000 |
| NS(=O)(=O)c1cccc(-c2csc3cnc(Nc4ccc(OCCN5CCCC5)cc4)nc23)c1 [Compound 73, 3-(2-(4-(2-(pyrrolidin-1-yl)ethoxy)phenylamino)thieno[3,2-d]pyrimidin-7-yl)benzenesulfonamide] | < 100 | < 100 | < 1000 | < 1000 | < 1000 | < 5000 |
| CC(=O)Nc1cccc(-c2csc3cnc(Nc4ccc(OCCN5CCCC5)cc4)nc23)c1 [Compound 62, N-(3-(2-(4-(2-(pyrrolidin-1-yl)ethoxy)phenylamino)thieno[3,2-d]pyrimidin-7-yl)phenyl)acetamide] | < 100 | < 100 | < 1000 | < 1000 | < 1000 | < 1000 |
| Nc1ccc(-c2csc3cnc(Nc4ccc(N5CCOCC5)cc4)nc23)cc1[N+](=O)[O-] [Compound 44, 7-(4-amino-3-nitrophenyl)-N-(4-morpholinophenyl)thieno[3,2-d]pyrimidin-2-amine] | < 100 | < 100 | < 1000 | < 5000 | < 5000 | < 5000 |
| CCN1CCC(Oc2ccc(Nc3ncc4scc(-c5cccc(S(=O)(=O)NC(C)(C)C)c5)c4n3)cc2)CC1 [Compound 65, N-tert-butyl-3-(2-(4-(1-ethylpiperidin-4-yloxy)phenylamino)thieno[3,2-d]pyrimidin-7-yl)benzenesulfonamide] | < 100 | < 100 | < 1000 | < 5000 | < 1000 | < 5000 |
| CCc1ccccc1-c1csc2cnc(Nc3ccc(OCCN4CCCC4)cc3)nc12 [Compound 95, 7-(2-ethylphenyl)-N-(4-(2-(pyrrolidin-1-yl)ethoxy)phenyl)thieno[3,2-d]pyrimidin-2-amine] | < 100 | < 100 | < 1000 | < 1000 | < 1000 | < 1000 |
| COc1ncc(-c2csc3cnc(Nc4ccc(OC)c(OC)c4)nc23)c(OC)n1 [Compound 56, N-(3,4-dimethoxyphenyl)-7-(2,4-dimethoxypyrimidin-5-yl)thieno[3,2-d]pyrimidin-2-amine] | < 100 | < 100 | < 5000 | < 5000 | < 5000 | < 5000 |
